# Tests used:
# [1] = tested on: Trypanosoma brucei; assay: Antiparasitic activity against bloodstream form of Trypanosoma brucei 221 infected in mouse VSMC assessed as reduction in log10 RLU at 1 uM after 48 hrs by luciferase reporter gene assay; assay type: functional
# [2] = tested on: Trypanosoma brucei; assay: Antiparasitic activity against bloodstream form of Trypanosoma brucei 221 infected in mouse VSMC assessed as parasitic proliferation at 1 uM after 48 hrs by luciferase reporter gene assay; assay type: functional
# [3] = tested on: Trypanosoma brucei; assay: Antiparasitic activity against bloodstream form of Trypanosoma brucei 221 infected in mouse VSMC assessed as reduction in parasitic proliferation after 48 hrs by cell titer-glo based assay; assay type: functional, organism-based; conditions: Trypanosoma brucei, 221, VSMC
# [4] = biological target: Tyrosine-protein kinase JAK2 (Homo sapiens, UniProt O60674, V617F); assay: Inhibition of JAK2 V617F mutant (unknown origin) using L-Ahx-IPTSPITTTYFFFKKK-COOH as substrate in presence of ATP
# [5] = tested on: Trypanosoma brucei; assay: Inhibition of GST-tagged Trypanosoma brucei ERK8 autophosphorylation expressed in Escherichia coli using myelin basic protein as substrate after 30 mins in presence of 32P-gamma-ATP by SDS-PAGE based autoradiography
# [6] = Inhibition of GST-tagged Trypanosoma brucei ERK8 expressed in Escherichia coli using recombinant myelin basic protein as substrate after 30 mins in presence of 32P-gamma-ATP by Michaelis-Menten analysis
# [7] = Selectivity ratio of IC50 for mouse vSMC to IC50 for bloodstream form of Trypanosoma brucei 221; assay type: toxicity; conditions: read-out: Ratio IC50
# [8] = Selectivity ratio of IC50 for rat ins-1 cells to IC50 for bloodstream form of Trypanosoma brucei 221; assay type: toxicity; conditions: read-out: Ratio IC50
# [9] = Cytotoxicity against mouse VSMC assessed as cell growth inhibition
# [10] = tested on: INS1; assay: Cytotoxicity against rat INS-1 cells assessed as cell growth inhibition; assay type: cell-based
# Sequence of Tyrosine-protein kinase JAK2 (O60674 whole entry V617F): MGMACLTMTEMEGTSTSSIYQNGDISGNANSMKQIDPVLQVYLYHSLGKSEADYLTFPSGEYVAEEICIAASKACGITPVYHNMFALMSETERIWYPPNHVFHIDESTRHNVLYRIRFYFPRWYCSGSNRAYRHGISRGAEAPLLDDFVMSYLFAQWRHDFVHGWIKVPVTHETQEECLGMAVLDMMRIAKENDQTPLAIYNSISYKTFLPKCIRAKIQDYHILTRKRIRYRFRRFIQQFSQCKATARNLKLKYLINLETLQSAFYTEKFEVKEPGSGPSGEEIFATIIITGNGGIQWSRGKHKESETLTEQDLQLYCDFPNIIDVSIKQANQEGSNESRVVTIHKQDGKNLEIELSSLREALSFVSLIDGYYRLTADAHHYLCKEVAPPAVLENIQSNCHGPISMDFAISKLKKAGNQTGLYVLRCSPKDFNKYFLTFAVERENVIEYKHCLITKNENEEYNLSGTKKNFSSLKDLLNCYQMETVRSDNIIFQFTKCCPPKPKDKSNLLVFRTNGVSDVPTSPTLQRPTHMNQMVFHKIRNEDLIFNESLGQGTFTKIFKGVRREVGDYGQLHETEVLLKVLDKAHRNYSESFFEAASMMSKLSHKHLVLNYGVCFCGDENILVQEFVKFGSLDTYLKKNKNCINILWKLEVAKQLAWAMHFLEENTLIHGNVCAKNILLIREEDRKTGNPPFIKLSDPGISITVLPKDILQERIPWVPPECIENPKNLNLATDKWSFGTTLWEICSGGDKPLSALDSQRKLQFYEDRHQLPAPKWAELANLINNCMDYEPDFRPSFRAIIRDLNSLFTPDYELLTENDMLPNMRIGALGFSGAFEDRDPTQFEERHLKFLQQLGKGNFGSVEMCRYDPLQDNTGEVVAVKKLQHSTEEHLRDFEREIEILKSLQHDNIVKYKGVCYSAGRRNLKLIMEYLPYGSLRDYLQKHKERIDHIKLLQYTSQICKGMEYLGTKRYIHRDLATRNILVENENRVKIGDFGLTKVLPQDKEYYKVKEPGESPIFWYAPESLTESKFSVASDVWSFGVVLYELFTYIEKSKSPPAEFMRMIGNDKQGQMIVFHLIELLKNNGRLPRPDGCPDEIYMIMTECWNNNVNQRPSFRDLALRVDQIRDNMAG
SMILES,IC50 [3],inhibition [5],reduction in log10 RLU [1],Activity [2],further results
O=C1c2ccccc2-c2n[nH]c3cccc1c23,570 nM,,2,0.26%,
Cc1cc(Nc2nc(N[C@@H](C)c3ccc(F)cc3)c(C#N)cc2F)n[nH]1,120 nM,< 20%,2,0.26%,"Ki [4]: 0.45 nM; Ki [6]: 1250 nM; selectivity ratio [7]: 208 to 210; selectivity ratio [8]: 83 to 84; IC50 ([9]; Mus musculus, VSMC): 25000 nM; inhibition (INH) ([9]; mouse): Dose-dependent effect; IC50 ([10]; Rattus norvegicus, INS1): 10000 nM; inhibition (INH) ([10]; rat, ins1): Dose-dependent effect"
COc1ncc(-c2ccc3nccc(-c4ccnnc4)c3c2)cc1NS(=O)(=O)c1ccc(F)cc1F [OMIPALISIB],111 nM,,2,0.21%,
CCc1cnn2c(NCc3ccc[n+]([O-])c3)cc(N3CCCC[C@H]3CCO)nc12 [DINACICLIB],80 nM,,2,1.13%,
Cn1c(=O)n(-c2ccc(C(C)(C)C#N)cc2)c2c3cc(-c4cnc5ccccc5c4)ccc3ncc21 [DACTOLISIB],,,2,0.49%,
CCS(=O)(=O)Nc1ccc2c(c1)/C(=C(/Nc1ccc(CN3CCCCC3)cc1)c1ccccc1)C(=O)N2 [HESPERADIN],,,2,0.27%,
COc1ccc(-c2ccc3ncc4c(c3c2)n(-c2ccc(N3CCNCC3)c(C(F)(F)F)c2)c(=O)n4C)cn1 [BGT-226 FREE BASE],950 nM,,2,0.12%,
Nc1ccc(-c2ccc3ncc4ccc(=O)n(-c5cccc(C(F)(F)F)c5)c4c3c2)cn1,1000 nM,,2,0.6%,
CNC(=O)c1nn(C)c2c1C(C)(C)Cc1cnc(Nc3ccc(N4CCN(C)CC4)cc3)nc1-2 [MILCICLIB],610 nM,< 20%,2,0.58%,

# Further lines, with some results ahead:
IC50 [3],inhibition [5],SMILES,reduction in log10 RLU [1],Activity [2],further results
260 nM,< 20%,CC(=O)NCC(=O)N1[C@@H]2CC[C@H]1c1ccc(Nc3ncc(C(F)(F)F)c(NC4CCC4)n3)cc12 [PF-03814735],2,1.16%,
120 nM,,CC(C)(C)c1cnc(CSc2cnc(NC(=O)C3CCNCC3)s2)o1 [BMS-387032],2,0.36%,
210 nM,< 20%,Cc1ncc(-c2ccnc(Nc3ccc(S(C)(=O)=O)cc3)n2)n1C(C)C [AZD-5438],2,0.45%,
